According to patent publication US20230085307A1, “PYRIDAZINONE COMPOUND AND HERBICIDE” (NISSAN CHEMICAL CORPORATION, priority 2019, published 2023):

Tested on: Japanese bulrush
Test: Test Example 2: herbicidal activity, application during weed generation under submerged conditions (Table 17, symbol B)
Format: in vivo, Japanese bulrush (Schoenoplectus juncoides)
Conditions: AAH 320 g/ha; application during weed generation, submerged conditions
Summary of the method: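 Steps: fill Wagner pots with alluvial soil; add water to give 4 cm depth; sow the species mixed; grow under glass at 25–30° C.; at 1–2 leaves apply water-diluted emulsion formulation to the water surface at a fixed herbicide amount; score after 3 weeks.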

SMILES | herbicidal effect rating, B: Japanese bulrush
CCCC(=O)Oc1c(C)nn(C)c(=O)c1-c1c(-c2ccc(OCC)cc2)sc2ccc(F)cc12 [2-031] | 3 (Herbicidal rate of 40% or more and less than 70%)
CCCOc1ccc(-c2sc3ccc(F)cc3c2-c2c(OC(=O)CCC)c(C)nn(C)c2=O)cc1 [2-033] | 4 (Herbicidal rate of 70% or more and less than 90%)
CCCC(=O)Oc1c(C)nn(C)c(=O)c1-c1c(-c2ccc(OC(C)C)cc2)sc2ccc(F)cc12 [2-035] | 4 (Herbicidal rate of 70% or more and less than 90%)

Tested on: windgrass
Test: Test Example 5: herbicidal effect by foliage application, plastic box (Table 20, symbol L)
Format: in vivo, windgrass (Apera spica-venti)
Conditions: foliage application, 320 g/ha, 3 weeks after application
Summary of the method: (§1)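 Post-emergence foliar test in sterilized diluvial soil. Compound applied as water-diluted emulsion at a predetermined rate to 14-day-old plants; evaluation at three weeks.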

SMILES | effect on windgrass (L)
CCCC(=O)Oc1c(C)nn(C)c(=O)c1-c1c(-c2ccc(OCC)cc2)sc2ccc(F)cc12 [2-031] | 0 (Herbicidal rate of 5% or less (almost no effect))
CCCOc1ccc(-c2sc3ccc(F)cc3c2-c2c(OC(=O)CCC)c(C)nn(C)c2=O)cc1 [2-033] | 0 (Herbicidal rate of 5% or less (almost no effect))
CCCC(=O)Oc1c(C)nn(C)c(=O)c1-c1c(-c2ccc(OC(C)C)cc2)sc2ccc(F)cc12 [2-035] | 0 (Herbicidal rate of 5% or less (almost no effect))

Tested on: southern crabgrass
Test: Test Example 4: herbicidal effect by soil treatment (Table 19, symbol F)
Format: in vivo, southern crabgrass (Digitaria ciliaris)
Conditions: 320 g/ha
Summary of the method: (§2)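 Emulsion of test compound, water-diluted to predetermined amount, sprayed on soil after sowing (seed depth ~1.5 cm, sterilized diluvial soil). Greenhouse, 25–30° C. Effect graded at three weeks post-spray.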

SMILES | herbicidal effect rating, F: southern crabgrass
CCCC(=O)Oc1c(C)nn(C)c(=O)c1-c1c(-c2ccc(OCC)cc2)sc2ccc(F)cc12 [2-031] | 1 (Herbicidal rate of 5% or more and less than 20%)
CCCOc1ccc(-c2sc3ccc(F)cc3c2-c2c(OC(=O)CCC)c(C)nn(C)c2=O)cc1 [2-033] | 0 (Herbicidal rate of 5% or less (almost no effect))
CCCC(=O)Oc1c(C)nn(C)c(=O)c1-c1c(-c2ccc(OC(C)C)cc2)sc2ccc(F)cc12 [2-035] | 3 (Herbicidal rate of 40% or more and less than 70%)

Tested on: green foxtail
Test: Test Example 4: herbicidal effect by soil treatment (Table 19, symbol G)
Format: in vivo, green foxtail (Setaria viridis)
Conditions: 320 g/ha
Summary of the method: as §2

SMILES | herbicidal effect rating, G: green foxtail
CCCC(=O)Oc1c(C)nn(C)c(=O)c1-c1c(-c2ccc(OCC)cc2)sc2ccc(F)cc12 [2-031] | 2 (Herbicidal rate of 20% or more and less than 40%)
CCCOc1ccc(-c2sc3ccc(F)cc3c2-c2c(OC(=O)CCC)c(C)nn(C)c2=O)cc1 [2-033] | 0 (Herbicidal rate of 5% or less (almost no effect))
CCCC(=O)Oc1c(C)nn(C)c(=O)c1-c1c(-c2ccc(OC(C)C)cc2)sc2ccc(F)cc12 [2-035] | 3 (Herbicidal rate of 40% or more and less than 70%)

Tested on: barnyard grass
Test: Test Example 4: herbicidal effect by soil treatment (Table 19, symbol H)
Format: in vivo, barnyard grass (Echinochloa crus-galli)
Conditions: 320 g/ha
Summary of the method: as §2

SMILES | herbicidal effect rating, H: barnyard grass
CCCC(=O)Oc1c(C)nn(C)c(=O)c1-c1c(-c2ccc(OCC)cc2)sc2ccc(F)cc12 [2-031] | 3 (Herbicidal rate of 40% or more and less than 70%)
CCCOc1ccc(-c2sc3ccc(F)cc3c2-c2c(OC(=O)CCC)c(C)nn(C)c2=O)cc1 [2-033] | 0 (Herbicidal rate of 5% or less (almost no effect))
CCCC(=O)Oc1c(C)nn(C)c(=O)c1-c1c(-c2ccc(OC(C)C)cc2)sc2ccc(F)cc12 [2-035] | 2 (Herbicidal rate of 20% or more and less than 40%)

Tested on: lambsquarters
Test: Test Example 5: herbicidal effect by foliage application, plastic box (Table 20, symbol O)
Format: in vivo, lambsquarters (Chenopodium album)
Conditions: foliage application, 320 g/ha, 3 weeks after application
Summary of the method: as §1

SMILES | effect on lambsquarters (O)
CCCC(=O)Oc1c(C)nn(C)c(=O)c1-c1c(-c2ccc(OCC)cc2)sc2ccc(F)cc12 [2-031] | 5 (Herbicidal rate of 90% or more (almost completely withered))
CCCOc1ccc(-c2sc3ccc(F)cc3c2-c2c(OC(=O)CCC)c(C)nn(C)c2=O)cc1 [2-033] | 5 (Herbicidal rate of 90% or more (almost completely withered))
CCCC(=O)Oc1c(C)nn(C)c(=O)c1-c1c(-c2ccc(OC(C)C)cc2)sc2ccc(F)cc12 [2-035] | 3 (Herbicidal rate of 40% or more and less than 70%)

Tested on: oval-leafed pondweed
Test: Test Example 1: herbicidal activity, application before weed generation under submerged conditions (Table 16, symbol C)
Format: in vivo, oval-leafed pondweed (Monochoria vaginalis)
Conditions: 320 g/ha applied herbicide
Summary of the method: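 Submerged Wagner pots (alluvial soil, 4 cm water) sown with weed seeds and planted with 2.5-leaf rice seedlings; emulsifiable concentrate diluted in water applied to water surface on sowing day. Held in greenhouse at 25-30 °C; injury scored 0-5 by herbicidal rate after three weeks.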

SMILES | Herbicidal effect on C: oval-leafed pondweed (grade 0-5)
CCCC(=O)Oc1c(C)nn(C)c(=O)c1-c1c(-c2ccc(OCC)cc2)sc2ccc(F)cc12 [2-031] | 4 (Herbicidal rate of 70% or more and less than 90%)
CCCOc1ccc(-c2sc3ccc(F)cc3c2-c2c(OC(=O)CCC)c(C)nn(C)c2=O)cc1 [2-033] | 4 (Herbicidal rate of 70% or more and less than 90%)
CCCC(=O)Oc1c(C)nn(C)c(=O)c1-c1c(-c2ccc(OC(C)C)cc2)sc2ccc(F)cc12 [2-035] | 4 (Herbicidal rate of 70% or more and less than 90%)

Tested on: velvetleaf
Test: Test Example 4: herbicidal effect by soil treatment (Table 19, symbol M)
Format: in vivo, velvetleaf (Abutilon theophrasti)
Conditions: 320 g/ha
Summary of the method: as §2

SMILES | herbicidal effect rating, M: velvetleaf
CCCC(=O)Oc1c(C)nn(C)c(=O)c1-c1c(-c2ccc(OCC)cc2)sc2ccc(F)cc12 [2-031] | 3 (Herbicidal rate of 40% or more and less than 70%)
CCCOc1ccc(-c2sc3ccc(F)cc3c2-c2c(OC(=O)CCC)c(C)nn(C)c2=O)cc1 [2-033] | 3 (Herbicidal rate of 40% or more and less than 70%)
CCCC(=O)Oc1c(C)nn(C)c(=O)c1-c1c(-c2ccc(OC(C)C)cc2)sc2ccc(F)cc12 [2-035] | 3 (Herbicidal rate of 40% or more and less than 70%)

Tested on: wild oat
Test: Test Example 4: herbicidal effect by soil treatment (Table 19, symbol I)
Format: in vivo, wild oat (Avena fatua)
Conditions: 320 g/ha
Summary of the method: as §2

SMILES | herbicidal effect rating, I: wild oat
CCCC(=O)Oc1c(C)nn(C)c(=O)c1-c1c(-c2ccc(OCC)cc2)sc2ccc(F)cc12 [2-031] | 0 (Herbicidal rate of 5% or less (almost no effect))
CCCOc1ccc(-c2sc3ccc(F)cc3c2-c2c(OC(=O)CCC)c(C)nn(C)c2=O)cc1 [2-033] | 0 (Herbicidal rate of 5% or less (almost no effect))
CCCC(=O)Oc1c(C)nn(C)c(=O)c1-c1c(-c2ccc(OC(C)C)cc2)sc2ccc(F)cc12 [2-035] | 0 (Herbicidal rate of 5% or less (almost no effect))

Tested on: persian speedwell
Test: Test Example 4: herbicidal effect by soil treatment (Table 19, symbol R)
Format: in vivo, Persian speedwell (Veronica persica)
Conditions: 320 g/ha
Summary of the method: as §2

SMILES | herbicidal effect rating, R: persian speedwell
CCCC(=O)Oc1c(C)nn(C)c(=O)c1-c1c(-c2ccc(OCC)cc2)sc2ccc(F)cc12 [2-031] | 4 (Herbicidal rate of 70% or more and less than 90%)
CCCOc1ccc(-c2sc3ccc(F)cc3c2-c2c(OC(=O)CCC)c(C)nn(C)c2=O)cc1 [2-033] | 4 (Herbicidal rate of 70% or more and less than 90%)
CCCC(=O)Oc1c(C)nn(C)c(=O)c1-c1c(-c2ccc(OC(C)C)cc2)sc2ccc(F)cc12 [2-035] | 5 (Herbicidal rate of 90% or more (almost completely withered))

Tested on: lambsquarters
Test: Test Example 4: herbicidal effect by soil treatment (Table 19, symbol O)
Format: in vivo, lambsquarters (Chenopodium album)
Conditions: 320 g/ha
Summary of the method: as §2

SMILES | herbicidal effect rating, O: lambsquarters
CCCC(=O)Oc1c(C)nn(C)c(=O)c1-c1c(-c2ccc(OCC)cc2)sc2ccc(F)cc12 [2-031] | 4 (Herbicidal rate of 70% or more and less than 90%)
CCCOc1ccc(-c2sc3ccc(F)cc3c2-c2c(OC(=O)CCC)c(C)nn(C)c2=O)cc1 [2-033] | 5 (Herbicidal rate of 90% or more (almost completely withered))
CCCC(=O)Oc1c(C)nn(C)c(=O)c1-c1c(-c2ccc(OC(C)C)cc2)sc2ccc(F)cc12 [2-035] | 5 (Herbicidal rate of 90% or more (almost completely withered))

Tested on: persian speedwell
Test: Test Example 5: herbicidal effect by foliage application, plastic box (Table 20, symbol R)
Format: in vivo, Persian speedwell (Veronica persica)
Conditions: foliage application, 320 g/ha, 3 weeks after application
Summary of the method: as §1

SMILES | effect on persian speedwell (R)
CCCC(=O)Oc1c(C)nn(C)c(=O)c1-c1c(-c2ccc(OCC)cc2)sc2ccc(F)cc12 [2-031] | 5 (Herbicidal rate of 90% or more (almost completely withered))
CCCOc1ccc(-c2sc3ccc(F)cc3c2-c2c(OC(=O)CCC)c(C)nn(C)c2=O)cc1 [2-033] | 5 (Herbicidal rate of 90% or more (almost completely withered))
CCCC(=O)Oc1c(C)nn(C)c(=O)c1-c1c(-c2ccc(OC(C)C)cc2)sc2ccc(F)cc12 [2-035] | 5 (Herbicidal rate of 90% or more (almost completely withered))

Tested on: blackgrass
Test: Test Example 4: herbicidal effect by soil treatment (Table 19, symbol J)
Format: in vivo, blackgrass (Alopecurus myosuroides)
Conditions: 320 g/ha
Summary of the method: as §2

SMILES | herbicidal effect rating, J: blackgrass
CCCC(=O)Oc1c(C)nn(C)c(=O)c1-c1c(-c2ccc(OCC)cc2)sc2ccc(F)cc12 [2-031] | 0 (Herbicidal rate of 5% or less (almost no effect))
CCCOc1ccc(-c2sc3ccc(F)cc3c2-c2c(OC(=O)CCC)c(C)nn(C)c2=O)cc1 [2-033] | 0 (Herbicidal rate of 5% or less (almost no effect))
CCCC(=O)Oc1c(C)nn(C)c(=O)c1-c1c(-c2ccc(OC(C)C)cc2)sc2ccc(F)cc12 [2-035] | 0 (Herbicidal rate of 5% or less (almost no effect))

Tested on: velvetleaf
Test: Test Example 5: herbicidal effect by foliage application, plastic box (Table 20, symbol M)
Format: in vivo, velvetleaf (Abutilon theophrasti)
Conditions: foliage application, 320 g/ha, 3 weeks after application
Summary of the method: as §1

SMILES | effect on velvetleaf (M)
CCCC(=O)Oc1c(C)nn(C)c(=O)c1-c1c(-c2ccc(OCC)cc2)sc2ccc(F)cc12 [2-031] | 5 (Herbicidal rate of 90% or more (almost completely withered))
CCCOc1ccc(-c2sc3ccc(F)cc3c2-c2c(OC(=O)CCC)c(C)nn(C)c2=O)cc1 [2-033] | 5 (Herbicidal rate of 90% or more (almost completely withered))
CCCC(=O)Oc1c(C)nn(C)c(=O)c1-c1c(-c2ccc(OC(C)C)cc2)sc2ccc(F)cc12 [2-035] | 5 (Herbicidal rate of 90% or more (almost completely withered))

Tested on: chickweed
Test: Test Example 4: herbicidal effect by soil treatment (Table 19, symbol P)
Format: in vivo, common chickweed (Stellaria media)
Conditions: 320 g/ha
Summary of the method: as §2

SMILES | herbicidal effect rating, P: chickweed
CCCC(=O)Oc1c(C)nn(C)c(=O)c1-c1c(-c2ccc(OCC)cc2)sc2ccc(F)cc12 [2-031] | 1 (Herbicidal rate of 5% or more and less than 20%)
CCCOc1ccc(-c2sc3ccc(F)cc3c2-c2c(OC(=O)CCC)c(C)nn(C)c2=O)cc1 [2-033] | 4 (Herbicidal rate of 70% or more and less than 90%)
CCCC(=O)Oc1c(C)nn(C)c(=O)c1-c1c(-c2ccc(OC(C)C)cc2)sc2ccc(F)cc12 [2-035] | 3 (Herbicidal rate of 40% or more and less than 70%)

Tested on: southern crabgrass
Test: Test Example 5: herbicidal effect by foliage application, plastic box (Table 20, symbol F)
Format: in vivo, southern crabgrass (Digitaria ciliaris)
Conditions: foliage application, 320 g/ha, 3 weeks after application
Summary of the method: as §1

SMILES | effect on southern crabgrass (F)
CCCC(=O)Oc1c(C)nn(C)c(=O)c1-c1c(-c2ccc(OCC)cc2)sc2ccc(F)cc12 [2-031] | 0 (Herbicidal rate of 5% or less (almost no effect))
CCCOc1ccc(-c2sc3ccc(F)cc3c2-c2c(OC(=O)CCC)c(C)nn(C)c2=O)cc1 [2-033] | 2 (Herbicidal rate of 20% or more and less than 40%)
CCCC(=O)Oc1c(C)nn(C)c(=O)c1-c1c(-c2ccc(OC(C)C)cc2)sc2ccc(F)cc12 [2-035] | 2 (Herbicidal rate of 20% or more and less than 40%)
